From US9668993B2, “Non-steroidal anti-inflammatory drug dosing regimen” (Johnson & Johnson Consumer Inc., priority 2003, dated 2017)

Tested on: moderate to severe post-operative dental pain
Assay: PK/PD dental pain study, pain relief scores and pain intensity differences over 12 hours
Assay type: in vivo, human
Settings: for pain relief during the first four hours: compared with the other treatments
Description: A double-blind, randomized, parallel, placebo-controlled, single center, PK/PD dental pain study was conducted over a 12 hour observation period to evaluate the pharmacokinetic, pharmacodynamic, efficacy and safety profiles of certain ibuprofen dosing regimens. Specifically, a single dose of 600 mg ibuprofen extended release caplets was compared with equivalent total doses of ibuprofen immediate release 200 mg caplets administered in three different dosing regimens as well as placebo in the treatment of moderate to severe post-operative dental pain.
The ibuprofen was administered as ibuprofen extended release 600 mg caplets or one or more ibuprofen immediate release 200 mg caplets.
The patients evaluated in this study consisted of male or non-pregnant and non-lactating female out-patient volunteers, 16 years of age or older, complaining of moderate to severe pain following the surgical extraction of three or four third molars with at least one partial or complete bony impacted third mandibular molar. The term impacted included: partial bony impaction, bony impaction, or complicated bony impaction. A total of 210 patients were entered into the study. 208 patients were eligible for the efficacy analyses.
All patients who met the entrance criteria were enrolled in one of two study sub-groups. One sub-group of patients had both pharmacokinetic and pharmacodynamic evaluation (PK group). The other sub-group of patients had only the analgesic efficacy evaluations (non-PK group). A separate randomization schedule was used for each of the two sub-groups. Patients from both subgroups were assigned at random to one of the five following treatments:
Patients' assessments of pain intensity and pain relief as well as blood samples for plasma ibuprofen analysis were obtained at the study site at hours 0, 0.25, 0.5, 1, 1.5, 2, 2.5, 3, 4, 4.5, 5, 6, 7, 8, 8.5, 9, 10, 11 and 12. A stopwatch technique was used to measure the onset of meaningful pain relief.

SMILES: CC(C)Cc1ccc(C(C)C(=O)O)cc1 (centres unmarked) [ibuprofen, 2-(4-isobutylphenyl)-propionic acid]
- pain relief during the first four hours (400/200/0 regimen: immediate release 400 mg at 0 hour, 200 mg at 4 hours): superior pain relief over the other treatments
- pain relief over the entire 12 hour study period (400/200/0 regimen: immediate release 400 mg at 0 hour, 200 mg at 4 hours, patients after third molar extraction): excellent pain relief
- pain relief scores during the 4 to 12 hour interval (400/200/0 regimen, no further ibuprofen after the first four hours): highest pain relief scores
- pain intensity differences (PID) over the 12 hour study period (400/200/0 regimen, particularly after the four hour mark): best PID
- pain relief during the first four hours (600/0/0 immediate release regimen: 600 mg single dose at 0 hour): superior pain relief over the other treatments
